≈ marks a conversion by molar mass, not a printed value. Calls of active or inactive are those of the source. The rule behind the calls is not given here.
Columns and labels:
[1] = system: Pichia kudriavzevii; test: Antifungal activity against Pichia kudriavzevii NRRL Y-7179 after 24 hr by NCCLS broth microdilution method; type: functional; conditions: NRRL Y-7179, 24 h
[2] = system: Cyberlindnera jadinii; test: Antifungal activity against Cyberlindnera jadinii NRRL Y-900 after 24 hr by NCCLS broth microdilution method; type: functional; conditions: Williopsis jadinii, NRRL Y-900, 24 h
[3] = system: RAW264.7; test: Cytotoxicity against Mus musculus (mouse) RAW264.7 cells up to 25 ug/ml; type: cell-based
[4] = system: Vero; test: Cytotoxicity against Chlorocebus aethiops (African green monkey) Vero cells assessed as cell viability up to 25 ug/ml after 48 hr by neutral red assay; type: cell-based; conditions: chlorocebus sabaeus
[5] = system: Candida tropicalis; test: Antifungal activity against Candida tropicalis NRRL Y-12968 after 24 hr by NCCLS broth microdilution method; type: functional; conditions: NRRL Y-12968, 24 h
[6] = biological target: T1, Nitric oxide synthase, inducible (Mus musculus) (UniProt P29477); test: Inhibition of iNOS in Mus musculus (mouse) RAW264.7 cells assessed as inhibition of LPS-induced nitrite production up to 25 ug/ml incubated for 30 min prior to LPS challenge measured after 24 hr by Griess assay relative to vehicle-treated control; type: cell-based
T1 sequence (whole entry): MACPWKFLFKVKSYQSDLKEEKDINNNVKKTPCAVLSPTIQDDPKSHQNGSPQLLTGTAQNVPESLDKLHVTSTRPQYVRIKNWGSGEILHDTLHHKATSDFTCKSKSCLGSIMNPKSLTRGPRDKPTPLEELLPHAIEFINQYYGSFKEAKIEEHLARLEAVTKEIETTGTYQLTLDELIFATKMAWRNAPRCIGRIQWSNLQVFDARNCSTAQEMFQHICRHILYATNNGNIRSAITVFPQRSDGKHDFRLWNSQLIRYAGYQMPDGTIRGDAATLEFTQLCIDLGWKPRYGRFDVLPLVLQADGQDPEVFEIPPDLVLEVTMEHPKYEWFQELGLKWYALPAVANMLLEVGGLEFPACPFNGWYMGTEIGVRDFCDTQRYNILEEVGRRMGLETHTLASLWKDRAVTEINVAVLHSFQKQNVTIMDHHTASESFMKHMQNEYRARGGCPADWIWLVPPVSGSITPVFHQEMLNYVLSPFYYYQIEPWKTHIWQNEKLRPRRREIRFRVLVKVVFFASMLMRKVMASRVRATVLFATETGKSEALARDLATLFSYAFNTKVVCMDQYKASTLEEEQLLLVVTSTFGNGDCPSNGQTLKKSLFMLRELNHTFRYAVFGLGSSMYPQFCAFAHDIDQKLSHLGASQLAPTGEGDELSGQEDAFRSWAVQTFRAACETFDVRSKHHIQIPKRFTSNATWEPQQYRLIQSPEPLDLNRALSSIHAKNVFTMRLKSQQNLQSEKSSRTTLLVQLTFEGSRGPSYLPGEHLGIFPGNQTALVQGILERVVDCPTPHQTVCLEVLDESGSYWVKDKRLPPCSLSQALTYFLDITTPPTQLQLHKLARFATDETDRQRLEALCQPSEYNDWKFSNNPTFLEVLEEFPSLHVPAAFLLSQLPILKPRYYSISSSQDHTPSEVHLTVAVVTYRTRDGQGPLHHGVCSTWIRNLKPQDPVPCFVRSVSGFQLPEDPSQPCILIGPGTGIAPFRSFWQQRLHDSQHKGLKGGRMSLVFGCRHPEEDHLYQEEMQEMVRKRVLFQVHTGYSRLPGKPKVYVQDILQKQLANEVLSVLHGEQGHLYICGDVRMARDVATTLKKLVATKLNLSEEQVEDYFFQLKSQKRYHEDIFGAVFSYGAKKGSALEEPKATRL

[7] = system: Botrytis cinerea; test: Antifungal activity against Botryotinia fuckeliana at 0.3 to 30 uM after 48 to 72 hr by broth microdilution method; type: functional, organism-based
[8] = system: Candida albicans; test: Antifungal activity against Candida albicans clinical isolate at 2000 ug/ml by agar diffusion method; type: functional; conditions: read-out: IZ
[9] = system: Candida albicans; test: Antifungal activity against Candida albicans ATCC 90028 after 24 hr by NCCLS broth microdilution method; type: functional; conditions: ATCC 90028, 24 h
[10] = system: Colletotrichum fragariae; test: Antifungal activity against Colletotrichum fragariae at 0.3 to 30 uM after 48 to 72 hr by broth microdilution method; type: functional, organism-based
[11] = system: HL-60; test: Cytotoxicity against Homo sapiens (human) HL60 cells; type: cell-based
[12] = system: Candida albicans; test: Antifungal activity against Candida albicans clinical isolate after 24 hr by NCCLS broth microdilution method; type: functional
[13] = system: SW1353; test: Inhibition of PMA-induced NFkappaB activity in Homo sapiens (human) SW1353 cells up to 25 ug/ml incubated for 30 min followed by PMA induction for 8 hr by luciferase reporter gene assay; type: cell-based
[14] = system: Candida albicans; test: Antifungal activity against Candida albicans NRRL Y-12983 after 24 hr by NCCLS broth microdilution method; type: functional; conditions: NRRL Y-12983, 24 h
[15] = system: Candida parapsilosis; test: Antifungal activity against Candida parapsilosis NRRL Y-12696 after 24 hr by NCCLS broth microdilution method; type: functional; conditions: Lodderomyces parapsilosis, NRRL Y-12696, 24 h
[16] = system: Colletotrichum acutatum; test: Antifungal activity against Colletotrichum acutatum assessed as growth inhibition at 30 uM after 72 hr by broth microdilution method; type: functional; conditions: read-out: GI
[17] = system: Colletotrichum gloeosporioides; test: Antifungal activity against Colletotrichum gloeosporioides assessed as growth inhibition at 30 uM after 72 hr by broth microdilution method; type: functional; conditions: read-out: GI
[18] = system: SK-MEL; test: Cytotoxicity against Homo sapiens (human) SK-MEL cells assessed as cell viability up to 25 ug/ml after 48 hr by neutral red assay; type: functional, cell-based
[19] = system: Candida tropicalis; test: Antifungal activity against Candida tropicalis NRRL Y-12968 at 2000 ug/ml by agar diffusion method; type: functional; conditions: read-out: IZ
[20] = system: BT-549; test: Cytotoxicity against Homo sapiens (human) BT549 cells assessed as cell viability up to 25 ug/ml after 48 hr by neutral red assay; type: functional, cell-based
[21] = system: Nakaseomyces glabratus; test: Antifungal activity against Candida glabrata clinical isolate after 24 hr by NCCLS broth microdilution method; type: functional
[22] = system: Fusarium oxysporum; test: Antifungal activity against Fusarium oxysporum assessed as growth inhibition at 30 uM after 72 hr by broth microdilution method; type: functional; conditions: read-out: GI
[23] = Cytotoxicity against Sus scrofa (pig) LLC-PK11 cells assessed as cell viability up to 25 ug/ml after 48 hr by neutral red assay; type: cell-based; conditions: llc-pk11, 48 h
[24] = system: KB; test: Cytotoxicity against Homo sapiens (human) KB cells assessed as cell viability up to 25 ug/ml after 48 hr by neutral red assay; type: functional, cell-based
[25] = biological target: Transcription factor Sp1 (Homo sapiens, UniProt P08047); test: Inhibition of Sp1 (unknown origin) up to 25 ug/ml by luciferase reporter gene assay
Sequence of Transcription factor Sp1 (P08047 whole entry): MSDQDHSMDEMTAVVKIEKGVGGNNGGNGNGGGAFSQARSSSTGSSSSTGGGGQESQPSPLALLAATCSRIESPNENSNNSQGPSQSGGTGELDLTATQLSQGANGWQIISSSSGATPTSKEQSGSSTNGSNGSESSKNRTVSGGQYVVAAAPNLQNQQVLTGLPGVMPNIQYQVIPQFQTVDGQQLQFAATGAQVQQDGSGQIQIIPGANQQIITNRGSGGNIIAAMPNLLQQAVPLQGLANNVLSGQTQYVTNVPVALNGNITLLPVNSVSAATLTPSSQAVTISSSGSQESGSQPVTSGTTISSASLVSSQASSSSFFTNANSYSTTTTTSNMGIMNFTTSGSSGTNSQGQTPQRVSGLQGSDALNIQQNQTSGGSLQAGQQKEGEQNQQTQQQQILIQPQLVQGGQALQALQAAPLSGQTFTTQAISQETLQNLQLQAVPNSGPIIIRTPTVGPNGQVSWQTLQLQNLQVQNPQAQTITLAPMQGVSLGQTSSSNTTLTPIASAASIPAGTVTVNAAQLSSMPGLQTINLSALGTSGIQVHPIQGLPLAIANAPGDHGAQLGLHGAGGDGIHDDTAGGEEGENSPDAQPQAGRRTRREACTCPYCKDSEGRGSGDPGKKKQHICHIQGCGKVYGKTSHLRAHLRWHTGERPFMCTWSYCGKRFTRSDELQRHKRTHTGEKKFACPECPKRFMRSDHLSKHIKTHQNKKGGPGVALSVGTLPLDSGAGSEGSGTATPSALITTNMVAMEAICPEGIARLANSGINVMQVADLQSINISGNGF

[26] = system: Phomopsis obscurans; test: Antifungal activity against Phomopsis obscurans assessed as growth inhibition at 30 uM after 144 hr by broth microdilution method; type: functional; conditions: Paraphomopsis obscurans, read-out: GI
[27] = system: HL-60; test: Antioxidant activity in PMA-stimulated Homo sapiens (human) HL60 cells assessed as inhibition of intracellular ROS generation up to 25 ug/ml incubated for 30 min prior to PMA stimulation measured after 30 min by DCFH-DA assay relative to vehicle-treated control; type: functional, cell-based
[28] = system: SK-OV-3; test: Cytotoxicity against Homo sapiens (human) SKOV3 cells assessed as cell viability up to 25 ug/ml after 48 hr by neutral red assay; type: functional, cell-based
[29] = biological target: T2, Nitric oxide synthase, inducible (Mus musculus, UniProt P29477); test: Inhibition of iNOS in Mus musculus (mouse) RAW264.7 cells assessed as inhibition of LPS-induced nitrite production incubated for 30 min prior to LPS challenge measured after 24 hr by Griess assay; type: cell-based
T2 sequence (P29477 whole entry): T1 sequence (whole entry)

[30] = system: Diaporthe ampelina; test: Antifungal activity against Diaporthe ampelina assessed as growth inhibition at 30 uM after 144 hr by broth microdilution method; type: functional; conditions: read-out: GI
[31] = system: HL-60; test: Antioxidant activity in PMA-stimulated Homo sapiens (human) HL60 cells assessed as inhibition of intracellular ROS generation incubated for 30 min prior to PMA stimulation measured after 30 min by DCFH-DA assay; type: functional, cell-based
[32] = Inhibition of PMA-induced NFkappaB activity in Homo sapiens (human) SW1353 cells incubated for 30 min followed by PMA induction for 8 hr by luciferase reporter gene assay; type: cell-based
[33] = system: RAW264.7; test: Cytotoxicity against Mus musculus (mouse) RAW264.7 cells; type: cell-based
[34] = system: HL-60; test: Cytotoxicity against Homo sapiens (human) HL60 cells up to 25 ug/ml; type: cell-based

MIC [1] [mg/L]	MIC [2] [mg/L]	MIC [5] [mg/L]	MIC [9] [mg/L]	MIC [12] [mg/L]	MIC [14] [mg/L]	MIC [15] [mg/L]	inhibition (INH) [25]	Compound	Activity [3]	Activity [4]	Activity [7]	zone of inhibition at 2000 µg/mL [8] [mm]	Activity [10]	inhibition [13]	Activity [18]	zone of inhibition at 2000 µg/mL [19] [mm]	Activity [20]	Activity [23]	Activity [24]	Activity [28]	further results
> 1000	> 1000	> 1000	> 1000	> 1000	> 1000	> 1000	Not Active	CC(=O)N1N=C(c2ccc(F)cc2)OC1c1ccc(Br)s1 (stereo not drawn)	Non-toxic	Not Active	inactive	9	inactive	inactive	inactive	9	inactive	Not Active	inactive	inactive	inhibition [6]: inactive; IC50 [11]: 5.9 mg/L (≈ 16 µM); inhibition of growth at 30 µM [16]: 49%; inhibition of growth at 30 µM [17]: 66%; MIC [21]: > 1000 mg/L; inhibition of growth at 30 µM [22]: 67%; inhibition of growth at 30 µM [26]: 65%; inhibition [27]: inactive
250 (≈ 764 µM)	250 (≈ 764 µM)	250 (≈ 764 µM)	250 (≈ 764 µM)	250 (≈ 764 µM)	125 (≈ 382 µM)	250 (≈ 764 µM)	Not Active	O=C(N/N=C/c1ccc(Br)s1)c1ccc(F)cc1	Non-toxic	Not Active	inactive	9	inactive	inactive	inactive	9	inactive	Not Active	inactive	inactive	IC50 [29]: > 76.4 µM; IC50 [11]: 16 mg/L (≈ 48.9 µM); inhibition of growth at 30 µM [30]: 91%; inhibition of growth at 30 µM [17]: 32%; MIC [21]: 250 mg/L (≈ 764 µM); inhibition of growth at 30 µM [22]: 40%; inhibition [27]: inactive
500 (≈ 1510 µM)	250 (≈ 757 µM)	500 (≈ 1510 µM)	500 (≈ 1510 µM)	250 (≈ 757 µM)	500 (≈ 1510 µM)	500 (≈ 1510 µM)	Not Active	COc1ccc(C2OC(c3ccc(F)cc3)=NN2C(C)=O)cc1O (stereo not drawn)	Non-toxic	Not Active	inactive	9	inactive		inactive	9	inactive	Not Active	inactive	inactive	IC50 [29]: 12.1 µM; IC50 [31]: 0.9 mg/L (≈ 2.72 µM); IC50 [11]: 20 mg/L (≈ 60.5 µM); IC50 [32]: 0.75 mg/L (≈ 2.27 µM); MIC [21]: 250 mg/L (≈ 757 µM)
								C=C1C(=O)O[C@@H]2C3O[C@]3(C)CC/C=C(\C)CC[C@@H]12 (stereo partly drawn)													IC50 [33]: 13 mg/L (≈ 52.4 µM); IC50 [29]: 1.61 µM; IC50 [32]: 0.68 mg/L (≈ 2.74 µM)
500 (≈ 1940 µM)	500 (≈ 1940 µM)	500 (≈ 1940 µM)	500 (≈ 1940 µM)		500 (≈ 1940 µM)	500 (≈ 1940 µM)	Not Active	O=C(N/N=C/c1ccc(O)cc1)c1ccc(F)cc1		Not Active		9		inactive	inactive	9	inactive	Not Active	inactive	inactive	IC50 [33]: > 25 mg/L; Activity [34]: Non-toxic; inhibition [6]: inactive; IC50 [29]: > 96.8 µM; inhibition [27]: inactive
500 (≈ 1560 µM)	1000 (≈ 3110 µM)		500 (≈ 1560 µM)	500 (≈ 1560 µM)	500 (≈ 1560 µM)	1000 (≈ 3110 µM)	Not Active	O=C(N/N=C/c1ccc(Br)cc1)c1ccc(F)cc1	Non-toxic	Not Active	inactive	9	inactive	inactive	inactive	9	inactive	Not Active	inactive	inactive	Activity [34]: Non-toxic; inhibition [6]: inactive; inhibition of growth at 30 µM [17]: 22%; MIC [21]: 250 mg/L (≈ 778 µM); inhibition of growth at 30 µM [22]: 35%; inhibition [27]: inactive

From ChEMBL document CHEMBL3046330, “Synthesis and biological activity of hydrazidehydrazones and their corresponding 3-acetyl-2,5-disubstituted-2,3-dihydro-1,3,4-oxadiazoles” (Med Chem Res, 2012)
